One experiment deals with human SARM1(50-724) (Homo sapiens (Human), UniProt Q6SZW1). Briefly: SARM1 NAD hydrolase biological assay (HPLC readout of NAD and NAM peak areas). Format: biochemical. The settings on record: 40 nM human SARM1(50-724), 0.3 mM NMN, 20 μM NAD, 60 minutes at room temperature; class symbols; read-out: Average IC50. Here is the method:
The reaction was incubated at room temperature for 60 minutes and quenched with 20 μL of 0.4% formic acid. […] Total run time for each sample was 4 minutes. The run was isocratic with 1.5% methanol in 40 mM ammonium acetate pH 6.0. Samples were run at a flow rate of 0.8 ml/min at 55° C. Peak areas of NAD and NAM were determined using OpenLAB CDS (Chem Station edition) software. For dose-response, the compound was diluted serially 1:3 in DMSO and added to the reaction starting at a final compound concentration of 100 μM in 1% DMSO.
Chain of human SARM1(50-724) (Q6SZW1 50-724): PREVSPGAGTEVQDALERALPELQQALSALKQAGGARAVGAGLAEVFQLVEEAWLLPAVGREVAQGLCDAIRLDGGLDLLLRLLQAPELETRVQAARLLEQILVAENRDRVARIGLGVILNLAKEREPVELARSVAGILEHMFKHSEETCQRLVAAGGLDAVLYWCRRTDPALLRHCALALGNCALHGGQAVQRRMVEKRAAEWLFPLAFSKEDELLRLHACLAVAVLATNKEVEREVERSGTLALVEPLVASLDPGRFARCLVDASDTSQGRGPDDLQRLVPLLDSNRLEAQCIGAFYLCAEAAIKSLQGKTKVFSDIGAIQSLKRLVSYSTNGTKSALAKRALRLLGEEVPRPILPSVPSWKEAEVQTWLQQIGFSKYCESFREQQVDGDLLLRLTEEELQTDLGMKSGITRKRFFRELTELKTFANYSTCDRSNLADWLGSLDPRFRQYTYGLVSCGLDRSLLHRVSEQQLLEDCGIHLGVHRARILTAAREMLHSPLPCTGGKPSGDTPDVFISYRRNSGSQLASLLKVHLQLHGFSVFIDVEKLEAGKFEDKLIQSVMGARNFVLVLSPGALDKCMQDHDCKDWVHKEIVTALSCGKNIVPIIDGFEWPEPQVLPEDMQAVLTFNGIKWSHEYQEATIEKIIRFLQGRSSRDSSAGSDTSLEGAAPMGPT
As usually defined, the IC50 is the concentration needed to halve the response being measured. Turning to `FC(F)(F)Cc1nc(Cc2ccncc2)cs1` [Example 10, 4-(Pyridin-4-ylmethyl)-2-(2,2,2-trifluoroethyl)thiazole], the IC50 was in the range of 1 to 10 µM.
Same read-out and setting: under `Cc1cnccc1Cc1c[nH]c(CC(F)(F)F)n1` [Example 25, 3-Methyl-4-((2-(2,2,2-trifluoroethyl)-1H-imidazol-4-yl)methyl)pyridine] stands under 1 µM.
Regarding `O[C@](c1ncc(Cc2ccncc2)[nH]1)(c1cncs1)C(F)(F)F` (single isomer, unassigned) [Example 26a], the IC50 was under 1 µM.
On the same count and under the same terms, as for `CC(O)(c1nc(Cc2ccncc2)c[nH]1)C(F)(F)F` (racemic) [Example 40, (rac)-1,1,1-Trifluoro-2-(4-(pyridin-4-ylmethyl)-1H-imidazol-2-yl)propan-2-ol], the figure is 1 to 10 µM.
For `CC(c1ccncc1)c1ccc(CC(F)(F)F)[nH]1` (racemic) [Example 11, (rac)-4-(1-(5-(2,2,2-Trifluoroethyl)-1H-pyrrol-2-yl)ethyl)pyridine], the IC50 was in the range of 1 to 10 µM.
For the compound `O[C@H](c1nc(Cc2ccncc2F)c[nH]1)C(F)(F)F` (single isomer, unassigned) [Example 38a], the half-inhibitory concentration (IC50) is 1 to 10 µM.
For `NC(c1nc(Cc2ccncc2)c[nH]1)C(F)(F)F` (single isomer, unassigned) [Example 15], the half-inhibitory concentration (IC50) was 1 to 10 µM.
As for `OC(c1nc(Cc2ccncc2)c[nH]1)c1cncs1` (single isomer, unassigned) [Example 20], the IC50 fell in the range of 1 to 10 µM.
The same measure, in the same setting: as for `C[C@H](c1ccncc1)c1c[nH]c([C@H](O)C(F)(F)F)n1` (single isomer, unassigned) [Example 24b], the figure is under 1 µM.
On to `FC(F)(F)CCc1nc(Cc2ccncc2)c[nH]1` [Example 2, 4-((2-(3,3,3-trifluoropropyl)-1H-imidazol-4-yl)methyl)pyridine], for which the 50% inhibitory concentration (IC50) was in the range of 1 to 10 µM.
Turning to `CC(c1ccncc1)c1c[nH]c(CC(F)(F)F)n1` (racemic) [Example 5, (rac)-4-(1-(2-(2,2,2-Trifluoroethyl)-1H-imidazol-4-yl)ethyl)pyridine], the concentration for half-maximal inhibition (IC50) was under 1 µM.
Regarding `N[C@@H](c1nc(Cc2ccncc2)cs1)C(F)(F)F` [Example 19a], the IC50 was 1 to 10 µM.
Consider `O[C@@H](c1ncc(Cc2ccncc2)[nH]1)c1nccs1` (single isomer, unassigned) [Example 31a], for which the IC50 lay in the range of 1 to 10 µM.
With `N#CCc1nc(Cc2ccncc2)c[nH]1` [Example 3, 2-(4-(Pyridin-4-ylmethyl)-1H-imidazol-2-yl)acetonitrile], the concentration for half-maximal inhibition (IC50) was under 1 µM.
Regarding `Cc1cnccc1Cc1c[nH]c([C@@H](O)C(F)(F)F)n1` (single isomer, unassigned) [Example 37a], the IC50 is under 1 µM.
In the case of `CN(C)C(c1ncc(Cc2ccncc2)[nH]1)C(F)(F)F` (single isomer, unassigned) [Example 17], the IC50 lay in the range of 10 to 100 µM.

Still in this experiment, the particulars now being: 40 nM human SARM1(50-724), 0.3 mM NMN, 20 μM NAD, 60 minutes at room temperature; given as numeric bound; read-out: Average IC50.
As for `ON=C(c1nc(Cc2ccncc2)cs1)C(F)(F)F` (mixture of isomers) [Example 18, (E/Z)-2,2,2-Trifluoro-1-(4-(pyridin-4-ylmethyl)thiazol-2-yl)ethan-1-one oxime], the half-maximal inhibitory concentration (IC50) is over 100 µM.
`O[C@@H](c1ncc(Cc2ccnc(F)c2)[nH]1)C(F)(F)F` (single isomer, unassigned) [Example 34a]: the 50% inhibitory concentration (IC50) was over 100 µM.
With `O[C@H](c1ncc(Cc2ccncc2)[nH]1)c1nccs1` (single isomer, unassigned) [Example 31], the half-maximal inhibitory concentration (IC50) is over 50 µM.
Take `O[C@H](c1ncc(Cc2ccnc(F)c2)[nH]1)C(F)(F)F` (single isomer, unassigned) [Example 34]: the IC50 is over 100 µM.

The values above are taken from US11629136B1, “Substituted pyridine derivatives as SARM1 inhibitors” (Nura Bio, Inc., priority 2021, dated 2023).
